These results are taken from patent US6110901A (priority 1992, dated 2000).

In data set [1] the target is influenza virus RNA polymerase (Influenza A virus, UniProt P03431). It is filed as biochemical.
Data set [2] concerns the target VSV RNA polymerase (Vesicular stomatitis Indiana virus, UniProt P03523). It is filed as biochemical, Vesicular stomatitus virus (VSV).
In data set [3] the test system is HeLa cells. The data set is described as follows: Cytotoxicity in uninfected HeLa cell cultures, MTT cell viability assay. It is filed as cell-based. As to conditions: MTT at 48 hours. The method, then:
(§1) Mammalian cell lines, MDCK CCL34 and HeLa cells CCL2 (both obtained under those accession numbers from ATCC culture) are plated in 96 well microtiter dishes at a density of 3.5×10^4 cells per well and infected with virus at low multiplicity followed by treatment with drug 24 hours after plating of cells; drug concentrations range from 0.025-12.5 mM. MDCK cells are infected with influenza virus (strain A/NWS) and HeLA cells are infected with HRV 14-14VR-284 (obtained from ATCC) (human rhinovirus 14) or CVB3 VR30 (coxsackie virus B3 strain Nancy obtained from ATCC); replicate uninfected cell cultures are treated with drug as toxicity control. At 48 hours after infection the extent of virus growth is determined by ELISA in the case of influenza virus or by the MTT (tetrazolium dye) cell viability assay in the cases of HRV 14 and CVB3. The influenza A (A/NWS)VR-129 (ATCC) virus ELISA assay utilizes a primary monoclonal antibody to the virus hemagglutinin protein and a secondary antibody conjugated to B-galactosidase. Cytotoxicity of drugs in uninfected cell cultures is determined by MTT cell viability assay at 48 hours after drug treatment

Data set [4] concerns influenza virus (strain A/NWS). Put plainly: microbe, parasite or virus in culture. The format is cell-based. The settings on record: MDCK, 48 h, read-out: IC50 Value Flu A/NWS.
Data set [5] relates to MDCK cells. Put plainly: cells. It is filed as cell-based. As to conditions: Canis lupus familiaris, 48 h, read-out: IC50 Value Tox (beside Flu A/NWS).
Data set [6] has as its system HRV 14 (human rhinovirus 14). The data set is described as follows: HRV 14 growth in HeLa cells by MTT cell viability assay. The format is cell-based. The settings on record: Rhinovirus B, MTT at 48 hours after infection. The method, then:
as §1

In data set [7] the test system is CVB3 (coxsackie virus B3 strain Nancy). Put plainly: CVB3 growth in HeLa cells by MTT cell viability assay. The format is cell-based. The settings on record: Enterovirus B, MTT at 48 hours after infection. The method, then: as §1
Data set [8] concerns influenza A virus (strain A/NWS). As to conditions: mouse, in vivo.
The mark [9] stands for this setting: read-out: IC50 Value Tox (beside CVB3).
Where [10] appears, read: Homo sapiens, read-out: IC50 Value Tox (beside CVB3).
Setting [11] is: Homo sapiens, read-out: IC50 Value Tox (beside HRV 14).

Several values for one entry are separate records, joined by “and”; a condition that tells them apart may be missing. Equal values may be shown once. Read-outs that look alike come from different tables or passages of the source.

As to `Nc1ccn([C@@H]2O[C@H](COP(=O)(O)OP(=O)(O)OP(=O)(O)O)C[C@H]2O)c(=O)n1` [3'-d CTP, 3'-deoxy-CTP], the “Activity against the influenza virus RNA polymerase” value in data set [1] is “low to moderately inhibitory activity”. Moreover, in data set [2], the “% Inhibition” value was 0% and the “Effect on VSV RNA polymerase” value was “does not inhibit”.
Turning to `[N-]=[N+]=N[C@H]1C[C@H](n2ccc(=O)[nH]c2=O)O[C@@H]1CO` [3'-AzdU], the IC50 in data set [3] (setting [9]) was greater than 12500 µM.
For `O=c1ccn([C@@H]2O[C@H](CO)C[C@H]2O)c(=O)[nH]1` [3'-dU, 3'-deoxyribouracil], the IC50 was found to be 85 µM in data set [4]; 12500 µM in data set [5]; 27 µM in data set [6]; 2400 µM in data set [3] (setting [10]); 2400 µM in data set [3] (setting [11]); 90 µM in data set [7]. For the same compound, the “MST” value in data set [8] was > 14 days and 10 days. Moreover, the “Protection of animals in murine model of influenza A virus infection” value in data set [8] is “significant protection”. The “Toxicity in mice” value in data set [8] is “appears to have toxicity”.
As for `Nc1nc2c(ncn2[C@@H]2O[C@H](COP(=O)(O)OP(=O)(O)OP(=O)(O)O)C[C@H]2O)c(=O)[nH]1` [3'-d GTP, 3'-deoxy-GTP], in data set [1], the “% Inhibition” value was determined as 55% and the “Activity against the influenza virus RNA polymerase” value is “fairly good inhibitor”. Besides, in data set [2], the “% Inhibition” value was 13% and 7%; the “Effect on VSV RNA polymerase” value is recorded as “only weakly inhibitory”.
As for `CO[C@H]1[C@@H](O)[C@H](n2ccc(N)nc2=O)O[C@@H]1CO` [3'-OMeC], the IC50 in data set [5] and in data set [3] (setting [11]) was greater than 50000 µM throughout.
`CO[C@H]1[C@@H](O)[C@H](n2cnc3c(N)ncnc32)O[C@@H]1CO` [3'-OMeA]: the IC50 in data set [5] and in data set [3] (setting [11]) was greater than 50000 µM throughout.
In the case of `[N-]=[N+]=N[C@H]1C[C@H](n2ccc(N)nc2=O)O[C@@H]1CO` [3'-AzdC], the IC50 in data set [3] (setting [9]) is greater than 12500 µM.
`Nc1nc2c(ncn2[C@@H]2O[C@H](CO)C[C@H]2O)c(=O)[nH]1` [3'-dG, 3'-deoxyriboguanine]: the IC50 in data set [4] came to 270 µM; in data set [5], 2100 µM; in data set [6], 280 µM; in data set [3] (setting [11]) it was 3400 µM.
On to `CO[C@H]1[C@@H](O)[C@H](n2ccc(=O)[nH]c2=O)O[C@@H]1CO` [3'-OMeU], for which the IC50 in data set [5] and in data set [3] (setting [11]) was greater than 50000 µM in each case.
Take `CO[C@H]1[C@@H](O)[C@H](n2cnc3c(=O)[nH]c(N)nc32)O[C@@H]1CO` [3'-OMeG]: the IC50 in data set [5] and in data set [3] (setting [11]) was greater than 50000 µM throughout.
Regarding `O=c1ccn([C@@H]2O[C@H](COP(=O)(O)OP(=O)(O)OP(=O)(O)O)C[C@H]2O)c(=O)[nH]1` [3'-d UTP, 3'-deoxy UTP], in data set [1], the “Activity against the influenza virus RNA polymerase” value was “moderately active”. Further, the “Effect on VSV RNA polymerase” value in data set [2] is reported as “little or no effect”.
In the case of `Nc1ccn([C@@H]2O[C@H](CO)C[C@H]2O)c(=O)n1` [3'-dC, 3'-deoxyribocytosine], the IC50 in data set [4] amounted to 900 µM; in data set [5], 5000 µM; in data set [6], 25 µM; in data set [3] (setting [10]), 1800 µM; in data set [3] (setting [11]), 1800 µM; in data set [7], 90 µM. The “% ILS (increase in life span)” value in data set [8] is 10% and 20%. Moreover, in data set [8], the “% Survival (14 Days)” value is 0% and 10%. In addition, the “Antiviral activity in murine model of influenza A virus infection” value in data set [8] is “minimal antiviral activity”. Also, in data set [8], the “MST” value was 11 days and 12 days.
As for `Nc1ncnc2c1ncn2[C@@H]1O[C@H](CO)C[C@H]1O` [3'-dA, 3'-deoxyriboadenine], the IC50 was found to be 800 µM in data set [4], 1400 µM in data set [5], 48 µM in data set [6] and 130 µM in data set [3] (setting [11]).
